Data: article PMC5951806, “Rapid labelling and covalent inhibition of intracellular native proteins using ligand-directed N-acyl-N-alkyl sulfonamide” (Nature Communications, 2018)

Columns and labels:
[1] = tested on: endogenous Hsp90; assay: Chemical labelling of endogenous Hsp90 in SKBR3 cells (in-gel fluorescence); format: cell-based, human; conditions: 3 h
[2] = target: Dolichyl-diphosphooligosaccharide--protein glycosyltransferase subunit 1 (RPN1) (Homo sapiens, UniProt P04843); assay: TMT LC-MSMS of 11-labelled proteins; format: cell-based
Chain of Dolichyl-diphosphooligosaccharide--protein glycosyltransferase subunit 1 (RPN1) (P04843 24-607): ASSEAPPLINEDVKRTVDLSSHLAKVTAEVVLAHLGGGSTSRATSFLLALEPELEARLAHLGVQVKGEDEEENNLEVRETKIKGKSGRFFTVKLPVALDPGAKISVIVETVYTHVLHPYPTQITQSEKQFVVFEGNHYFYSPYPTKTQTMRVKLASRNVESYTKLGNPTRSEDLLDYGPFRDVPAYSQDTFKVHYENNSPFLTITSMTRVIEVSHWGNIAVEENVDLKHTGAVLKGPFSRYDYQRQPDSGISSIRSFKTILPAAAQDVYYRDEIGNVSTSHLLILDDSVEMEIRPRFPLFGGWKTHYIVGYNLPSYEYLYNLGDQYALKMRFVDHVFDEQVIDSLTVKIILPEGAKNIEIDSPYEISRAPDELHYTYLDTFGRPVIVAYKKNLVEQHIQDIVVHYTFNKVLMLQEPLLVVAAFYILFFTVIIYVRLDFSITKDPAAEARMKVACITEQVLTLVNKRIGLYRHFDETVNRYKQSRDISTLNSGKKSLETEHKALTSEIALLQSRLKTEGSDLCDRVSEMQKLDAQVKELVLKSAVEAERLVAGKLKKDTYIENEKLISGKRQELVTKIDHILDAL
Chain of Dolichyl-diphosphooligosaccharide--protein glycosyltransferase subunit 1 (RPN1) (P39656 43-456 partner): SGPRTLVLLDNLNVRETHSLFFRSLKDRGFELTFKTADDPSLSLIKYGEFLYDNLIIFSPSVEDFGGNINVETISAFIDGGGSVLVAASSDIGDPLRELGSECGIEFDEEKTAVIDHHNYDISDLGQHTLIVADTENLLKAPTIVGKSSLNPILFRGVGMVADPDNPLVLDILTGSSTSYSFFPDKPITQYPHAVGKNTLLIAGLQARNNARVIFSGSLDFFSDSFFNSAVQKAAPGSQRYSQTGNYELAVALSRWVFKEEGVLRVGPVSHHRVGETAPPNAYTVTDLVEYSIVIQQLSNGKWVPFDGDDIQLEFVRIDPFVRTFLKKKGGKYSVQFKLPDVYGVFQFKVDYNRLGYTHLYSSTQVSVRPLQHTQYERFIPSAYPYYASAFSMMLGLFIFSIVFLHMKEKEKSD
Chain of Dolichyl-diphosphooligosaccharide--protein glycosyltransferase subunit 1 (RPN1) (P04844 23-631 partner): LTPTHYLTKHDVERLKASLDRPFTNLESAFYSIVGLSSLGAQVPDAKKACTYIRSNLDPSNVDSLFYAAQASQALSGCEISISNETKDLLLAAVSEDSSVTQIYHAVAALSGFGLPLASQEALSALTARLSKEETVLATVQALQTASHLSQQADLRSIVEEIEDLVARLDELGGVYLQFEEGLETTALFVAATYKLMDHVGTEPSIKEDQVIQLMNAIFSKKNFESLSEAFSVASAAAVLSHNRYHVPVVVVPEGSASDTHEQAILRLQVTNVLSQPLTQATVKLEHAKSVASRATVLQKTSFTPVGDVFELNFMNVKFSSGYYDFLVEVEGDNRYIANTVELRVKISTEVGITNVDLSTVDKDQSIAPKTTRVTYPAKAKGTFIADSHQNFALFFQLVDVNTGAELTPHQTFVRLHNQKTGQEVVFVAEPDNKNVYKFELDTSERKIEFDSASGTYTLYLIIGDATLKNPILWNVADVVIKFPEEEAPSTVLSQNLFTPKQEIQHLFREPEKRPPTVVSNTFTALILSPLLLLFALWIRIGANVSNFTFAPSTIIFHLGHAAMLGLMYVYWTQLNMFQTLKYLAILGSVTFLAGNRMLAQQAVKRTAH
Chain of Dolichyl-diphosphooligosaccharide--protein glycosyltransferase subunit 1 (RPN1) (P61803 whole entry partner): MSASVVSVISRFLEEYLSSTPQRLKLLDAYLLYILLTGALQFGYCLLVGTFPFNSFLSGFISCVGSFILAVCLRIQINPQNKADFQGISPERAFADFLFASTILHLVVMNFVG
Chain of Dolichyl-diphosphooligosaccharide--protein glycosyltransferase subunit 1 (RPN1) (P61165 whole entry partner): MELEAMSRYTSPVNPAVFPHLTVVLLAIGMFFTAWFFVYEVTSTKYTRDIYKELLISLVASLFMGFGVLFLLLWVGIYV
Chain of Dolichyl-diphosphooligosaccharide--protein glycosyltransferase subunit 1 (RPN1) (P0C6T2 whole entry partner): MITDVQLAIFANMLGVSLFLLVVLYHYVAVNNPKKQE
Source text: (§1) Supplement 41467_2018_4343_MOESM4_ESM.xlsx, sheet "Exp3" | column: Abundance Ratio: (11) / (11 with PU-H71); Abundance Ratio: (11) / (DMSO); Abundances (Grouped): 11; Abundances (Grouped): 11 with PU-H71

[3] = target: T1, Isoform 3 of Hexokinase-1 (HK1) (Homo sapiens, UniProt P19367); assay: TMT LC-MSMS of 11-labelled proteins; format: cell-based
T1 sequence (P19367 1-921 isoform P19367-3): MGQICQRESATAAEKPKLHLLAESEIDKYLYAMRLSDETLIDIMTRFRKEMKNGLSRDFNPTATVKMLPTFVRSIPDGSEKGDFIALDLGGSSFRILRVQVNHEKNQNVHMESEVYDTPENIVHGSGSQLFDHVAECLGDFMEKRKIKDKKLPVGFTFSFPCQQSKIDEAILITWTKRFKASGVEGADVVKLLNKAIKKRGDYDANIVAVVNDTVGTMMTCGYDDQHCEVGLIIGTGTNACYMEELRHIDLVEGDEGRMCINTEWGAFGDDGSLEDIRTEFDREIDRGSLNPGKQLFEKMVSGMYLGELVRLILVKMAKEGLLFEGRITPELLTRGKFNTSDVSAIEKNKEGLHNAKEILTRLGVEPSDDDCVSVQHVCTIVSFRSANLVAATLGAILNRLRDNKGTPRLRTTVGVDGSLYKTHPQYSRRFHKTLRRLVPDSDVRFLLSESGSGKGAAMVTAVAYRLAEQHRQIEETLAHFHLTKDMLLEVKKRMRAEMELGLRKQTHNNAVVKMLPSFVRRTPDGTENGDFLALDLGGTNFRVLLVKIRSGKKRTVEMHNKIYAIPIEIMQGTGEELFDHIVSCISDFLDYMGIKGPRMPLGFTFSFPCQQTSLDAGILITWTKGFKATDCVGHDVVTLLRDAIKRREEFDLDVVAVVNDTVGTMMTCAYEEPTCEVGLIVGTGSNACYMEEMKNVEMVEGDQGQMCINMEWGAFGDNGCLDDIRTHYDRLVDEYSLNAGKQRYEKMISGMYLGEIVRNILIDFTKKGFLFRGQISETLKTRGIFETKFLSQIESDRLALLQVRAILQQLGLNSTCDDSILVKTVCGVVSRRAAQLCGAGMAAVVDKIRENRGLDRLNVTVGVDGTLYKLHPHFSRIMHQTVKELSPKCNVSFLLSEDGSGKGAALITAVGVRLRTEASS
Source text: as §1

[4] = target: T2, Monocarboxylate transporter 4 (SLC16A3) (Homo sapiens, UniProt O15427); assay: TMT LC-MSMS of 11-labelled proteins; format: cell-based
T2 sequence (O15427 1-465): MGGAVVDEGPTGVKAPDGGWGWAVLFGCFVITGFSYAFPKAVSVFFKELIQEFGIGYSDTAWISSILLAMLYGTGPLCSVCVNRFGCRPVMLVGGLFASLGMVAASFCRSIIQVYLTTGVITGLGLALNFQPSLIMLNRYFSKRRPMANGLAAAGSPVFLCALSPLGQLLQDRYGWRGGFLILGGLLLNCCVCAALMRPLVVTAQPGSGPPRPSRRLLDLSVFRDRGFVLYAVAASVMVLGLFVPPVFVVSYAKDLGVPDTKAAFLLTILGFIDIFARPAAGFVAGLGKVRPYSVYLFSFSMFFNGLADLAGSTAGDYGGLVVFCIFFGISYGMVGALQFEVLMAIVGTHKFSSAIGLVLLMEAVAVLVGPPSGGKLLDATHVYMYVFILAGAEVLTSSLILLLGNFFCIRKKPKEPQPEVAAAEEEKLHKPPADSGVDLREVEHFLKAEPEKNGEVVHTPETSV
Source text: as §1

[5] = target: T3, Peroxiredoxin-4 (PRDX4) (Homo sapiens, UniProt Q13162); assay: TMT LC-MSMS of 11-labelled proteins; format: cell-based
T3 sequence (Q13162 38-271): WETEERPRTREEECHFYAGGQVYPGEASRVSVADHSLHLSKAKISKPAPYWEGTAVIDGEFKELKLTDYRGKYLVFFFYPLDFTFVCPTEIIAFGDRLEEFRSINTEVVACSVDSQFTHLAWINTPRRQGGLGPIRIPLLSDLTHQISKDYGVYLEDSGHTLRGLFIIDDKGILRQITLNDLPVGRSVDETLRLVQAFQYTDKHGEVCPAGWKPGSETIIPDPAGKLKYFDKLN
Source text: as §1

[6] = target: T4, Phosphate carrier protein, mitochondrial (SLC25A3) (Homo sapiens, UniProt Q00325); assay: TMT LC-MSMS of 11-labelled proteins; format: cell-based
T4 sequence (Q00325 50-362): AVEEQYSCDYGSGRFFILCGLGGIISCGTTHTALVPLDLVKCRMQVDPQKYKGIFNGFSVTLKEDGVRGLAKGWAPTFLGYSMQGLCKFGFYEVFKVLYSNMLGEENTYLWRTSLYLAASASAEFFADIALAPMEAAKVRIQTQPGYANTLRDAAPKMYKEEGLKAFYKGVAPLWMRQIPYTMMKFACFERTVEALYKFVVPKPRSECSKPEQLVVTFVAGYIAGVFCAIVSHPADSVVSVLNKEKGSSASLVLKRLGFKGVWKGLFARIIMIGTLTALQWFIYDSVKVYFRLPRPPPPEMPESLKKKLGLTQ
Source text: as §1

[7] = target: protein MAL2 (MAL2) (Homo sapiens, UniProt Q969L2); assay: TMT LC-MSMS of 11-labelled proteins; format: cell-based
Chain of protein MAL2 (MAL2) (Q969L2 whole entry): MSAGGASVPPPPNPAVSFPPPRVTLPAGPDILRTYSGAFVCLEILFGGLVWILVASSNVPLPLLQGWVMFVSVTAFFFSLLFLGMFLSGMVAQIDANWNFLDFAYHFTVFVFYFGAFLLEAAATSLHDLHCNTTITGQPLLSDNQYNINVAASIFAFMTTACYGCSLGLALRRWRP
Source text: as §1

## CC(=O)Oc1ccc2c(c1)Oc1cc(OC(C)=O)ccc1C21OC(=O)c2cc(C(=O)NCCOCCOCCNC(=O)CCCC(=O)N(CC#N)S(=O)(=O)c3ccc(C(=O)NCCCn4c(Sc5cc6c(cc5I)OCO6)nc5c(N)ncnc54)cc3)ccc21 [compound 11]
[1]; 1–10 µM, 37 °C
  unspecific reaction at high concentrations: No increase in unspecific
[1]; up to ~10 µM
  endogenous Hsp90 labelling: labelled endogenous Hsp90 (both α and β isoforms)
[2]; Exp3
  Abundance Ratio: (11) / (11 with PU-H71): 0.849
  Abundance Ratio: (11) / (DMSO): 2.221
  Abundances (Grouped): 11: 38.2
[2]; Exp3, with PU-H71
  Abundances (Grouped): 11 with PU-H71: 45
[3]; Exp3
  Abundance Ratio: (11) / (11 with PU-H71): 1.072
  Abundance Ratio: (11) / (DMSO): 2.893
  Abundances (Grouped): 11: 29.8
[3]; Exp3, with PU-H71
  Abundances (Grouped): 11 with PU-H71: 27.8
[4]; Exp3
  Abundance Ratio: (11) / (11 with PU-H71): 0.921
  Abundance Ratio: (11) / (DMSO): 12.228
  Abundances (Grouped): 11: 353.4
[4]; Exp3, with PU-H71
  Abundances (Grouped): 11 with PU-H71: 383.7
[5]; Exp3
  Abundance Ratio: (11) / (11 with PU-H71): 0.973
  Abundance Ratio: (11) / (DMSO): 2.612
  Abundances (Grouped): 11: 25.6
[5]; Exp3, with PU-H71
  Abundances (Grouped): 11 with PU-H71: 26.3
[6]; Exp3
  Abundance Ratio: (11) / (11 with PU-H71): 0.732
  Abundance Ratio: (11) / (DMSO): 2.193
  Abundances (Grouped): 11: 121.3
[6]; Exp3, with PU-H71
  Abundances (Grouped): 11 with PU-H71: 165.7
[7]; Exp3
  Abundance Ratio: (11) / (11 with PU-H71): 0.751
  Abundance Ratio: (11) / (DMSO): 5.099
  Abundances (Grouped): 11: 71.9
[7]; Exp3, with PU-H71
  Abundances (Grouped): 11 with PU-H71: 95.8
